One test concerns the target T1, α-amylase (Sus scrofa, UniProt P00690).
T1 sequence (P00690 16-511): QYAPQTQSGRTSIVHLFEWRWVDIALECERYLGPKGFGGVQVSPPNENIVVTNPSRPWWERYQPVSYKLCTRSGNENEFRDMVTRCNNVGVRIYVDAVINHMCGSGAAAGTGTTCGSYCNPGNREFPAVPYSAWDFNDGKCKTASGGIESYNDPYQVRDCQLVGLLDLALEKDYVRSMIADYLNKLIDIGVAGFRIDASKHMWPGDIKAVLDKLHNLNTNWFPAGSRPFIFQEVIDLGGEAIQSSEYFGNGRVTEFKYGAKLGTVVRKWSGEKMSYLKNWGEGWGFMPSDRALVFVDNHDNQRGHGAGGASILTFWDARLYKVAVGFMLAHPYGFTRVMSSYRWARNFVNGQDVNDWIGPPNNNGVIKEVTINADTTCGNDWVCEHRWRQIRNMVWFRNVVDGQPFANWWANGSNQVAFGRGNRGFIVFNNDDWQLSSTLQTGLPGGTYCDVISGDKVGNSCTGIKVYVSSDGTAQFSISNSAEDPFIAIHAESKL
Briefly: α-amylase inhibition (starch–iodine method). Particulars: for inhibition at 100 µg/mL: read-out: percentage inhibition of α-amylase.

The test system of another test is α-glucosidase. Briefly: α-glucosidase inhibitory activity (PNPG substrate). Set-up: IC50 ± SEM (α-glucosidase): unit not given beside the values. The note with it: for percentage inhibition of α-glucosidase: at 100 µg/mL; for IC50 ± SEM (α-glucosidase): Table 2 prints no unit, repeats Table 1 values; for IC50 α-Glucosidase: mean ± SEM of three measurements, highest test concentration 100 µg/mL.

The target in test [1] is butyrylcholinesterase (BChE) (Equus caballus, UniProt P81908). In words: biochemical. The note with it: for inhibition at 100 µg/mL: read-out: percentage inhibition of BChE.
Method: The anticholinesterase activity of the extracts and compounds was determined spectrophotometrically via the acetylcholinesterase (AChE) and butyrylcholinesterase (BChE) enzyme inhibition assay method described by Ellman with minor modifications [62, 63]. AChE and BChE from electric eel and horse serum, respectively, were used. The substrates of the reactions were acetylthiocholine iodide and butyrylthiocholine chloride. The activity of the cholinesterase was monitored using DTNB (5,5′-Dithio-bis(2-nitrobenzoic) acid). […] A Multiskan Go microplate reader spectrophotometer (Thermo Fischer Scientific, Waltham, MA, USA) was used to read optical densities.
Test [2] concerns the target T2, acetylcholinesterase (AChE) (Electrophorus electricus, UniProt O42275). Particulars: read-out: IC50 ± SEM (Acetylcholinesterase); Table 2 prints no unit; repeats Table 1 values.
The target of test [3] is T2, acetylcholinesterase (AChE). Briefly: biochemical. Particulars: for inhibition at 100 µg/mL: read-out: percentage inhibition of AChE, at 100 µg/mL.

Each structure is given as a SMILES string. In brackets after ≈: the same amount, converted by molar mass. Like-named read-outs stand apart in the source and are kept apart here.

T2 sequence (O42275 24-633): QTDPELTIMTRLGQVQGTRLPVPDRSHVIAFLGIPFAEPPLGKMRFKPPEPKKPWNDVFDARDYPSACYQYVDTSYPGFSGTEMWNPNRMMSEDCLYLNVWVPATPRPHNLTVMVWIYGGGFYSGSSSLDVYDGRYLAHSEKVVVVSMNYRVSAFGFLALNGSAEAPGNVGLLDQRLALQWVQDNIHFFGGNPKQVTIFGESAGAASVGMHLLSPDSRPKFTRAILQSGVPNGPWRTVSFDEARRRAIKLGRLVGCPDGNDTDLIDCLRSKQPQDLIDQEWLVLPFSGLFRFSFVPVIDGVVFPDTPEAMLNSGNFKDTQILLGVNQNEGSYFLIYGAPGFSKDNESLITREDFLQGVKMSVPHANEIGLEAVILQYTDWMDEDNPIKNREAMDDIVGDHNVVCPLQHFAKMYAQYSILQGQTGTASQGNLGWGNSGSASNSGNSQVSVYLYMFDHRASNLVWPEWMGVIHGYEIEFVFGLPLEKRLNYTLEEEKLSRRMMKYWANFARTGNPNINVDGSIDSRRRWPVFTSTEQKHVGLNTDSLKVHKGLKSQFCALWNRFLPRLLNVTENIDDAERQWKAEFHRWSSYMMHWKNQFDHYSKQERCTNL
Sequence of butyrylcholinesterase (BChE) (P81908 whole entry): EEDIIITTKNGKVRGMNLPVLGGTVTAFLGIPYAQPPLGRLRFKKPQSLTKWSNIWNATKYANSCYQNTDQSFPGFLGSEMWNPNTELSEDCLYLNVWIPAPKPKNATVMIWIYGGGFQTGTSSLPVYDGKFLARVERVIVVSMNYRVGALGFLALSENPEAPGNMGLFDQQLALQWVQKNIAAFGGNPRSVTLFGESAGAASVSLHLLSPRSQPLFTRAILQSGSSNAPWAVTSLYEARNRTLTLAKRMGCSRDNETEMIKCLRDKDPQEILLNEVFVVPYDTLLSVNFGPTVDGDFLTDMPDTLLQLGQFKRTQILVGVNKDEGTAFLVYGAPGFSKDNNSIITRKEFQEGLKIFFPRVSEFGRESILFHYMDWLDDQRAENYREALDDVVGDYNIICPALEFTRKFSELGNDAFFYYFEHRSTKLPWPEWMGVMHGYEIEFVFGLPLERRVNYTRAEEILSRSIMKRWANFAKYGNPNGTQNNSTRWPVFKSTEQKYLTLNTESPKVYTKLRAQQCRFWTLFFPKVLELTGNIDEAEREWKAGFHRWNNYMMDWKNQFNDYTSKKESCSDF
Method for α-amylase: The inhibition of α-amylase was determined using starch–iodine method with few modifications [64, 65]. Next, 50 µL of α-amylase from porcine pancreas in pH 6.9 phosphate buffer prepared with 6 mM NaCl and 25 µL of sample solutions was mixed in a 96-well microplate. The mixture was pre-incubated for 10 min at 37 °C. Next, 50 µL of starch solution (0.05%) was added and incubated for 10 min at 37 °C. Following incubation, the reaction was completed by adding HCl (0.1 M, 25 µL) and Lugol (100 µL) solutions, and the absorbance was recorded at 630 nm using a Multiskan Go microplate reader spectrophotometer (Thermo Fischer Scientific, Waltham, MA, USA).
Method for α-glucosidase: The α-glucosidase inhibitory activity was evaluated according to the method described previously [66]. A total of 50 µL of glutathione, 50 µL of sample solution, 50 µL of α-glucosidase from Saccharomyces cerevisiae in phosphate buffer (0.01 M pH 6.8) and 50 µL of PNPG (4-N-nitrophenyl-α-D-glucopyranoside) in phosphate buffer (0.01 M pH 6.8) were mixed in a 96-well microplate. The solution was incubated for 15 min at 37 °C. The reaction was then stopped with the addition 50 μL of sodium carbonate (0.2 M), and absorbances were read at 400 nm using a Multiskan Go microplate reader spectrophotometer (Thermo Fischer Scientific, Waltham, MA, USA).

Consider `C[C@H]1O[C@H](O[C@H]2[C@H](O)[C@@H](O)[C@@H](O[C@H]3[C@H](O)[C@@H](O)C(O)O[C@@H]3CO)O[C@@H]2CO)[C@H](O)[C@@H](O)[C@@H]1N[C@H]1C=C(CO)[C@@H](O)[C@H](O)[C@H]1O` (stereo partly drawn) [Acarbose, acarbose, reference compound], for which the inhibition at 100 µg/mL on α-amylase came out at 75.84 ± 0.52%. Further, in the test on α-glucosidase, the “percentage inhibition of α-glucosidase” value was found to be 51.35 ± 0.65%.
As to `COc1ccc2c3c1O[C@H]1C[C@@H](O)C=C[C@@]31CCN(C)C2` [Galantamine, galantamine, reference compound], the inhibition at 100 µg/mL in test [1] came to 73.85 ± 0.3%.
As a reminder, the IC50 is the point on the concentration scale where inhibition reaches its midpoint. Take `CC1=C[C@H]2OC(=O)[C@@]3(C)CCC[C@@](C)([C@@H]23)[C@H]1CC(=O)c1ccoc1` [Hypopurin A]: the IC50 in test [2] was more than 304 µM. Besides, in test [3], the IC50 is more than 304 µM and the inhibition at 100 µg/mL came out at 40.2 ± 0.75%. In addition, in test [1], 177 µM corresponded to half-maximal inhibition (IC50) and the inhibition at 100 µg/mL turned out to be 64.8 ± 0.93%. Further, at α-amylase, inhibition was half-maximal at 185 µM (IC50) and the inhibition at 100 µg/mL was 65.8 ± 0.84%. At α-glucosidase, the “IC50 ± SEM (α-glucosidase)” value came to 99.25 ± 0.96, the “percentage inhibition of α-glucosidase” value is 50.13 ± 0.81% and the “IC50 α-Glucosidase” value is 99.25 ± 0.96 µg/mL (≈ 302 µM).
With `CC1=C[C@H]2OC3OC(=O)[C@@]4(C)CCC[C@@]3([C@@H]24)[C@H]1CC(=O)c1ccoc1` [Hypopurin B], the IC50 in test [2] is more than 292 µM. Also, in test [3], the half-inhibitory concentration (IC50) was more than 292 µM and the inhibition at 100 µg/mL is 24.8 ± 0.33%. For the same compound, in test [1], the IC50 was 196 µM and the inhibition at 100 µg/mL amounted to 61.8 ± 1.15%. In addition, on α-amylase, inhibition was half-maximal at 203 µM (IC50) and the inhibition at 100 µg/mL is 56.68 ± 0.24%. On α-glucosidase, the “IC50 ± SEM (α-glucosidase)” value was 71.41 ± 0.98, the “percentage inhibition of α-glucosidase” value was determined as 51.95 ± 0.63% and the “IC50 α-Glucosidase” value came to 71.41 ± 0.98 µg/mL (≈ 209 µM).
Regarding `CC1=CC2OC3OCC4(CCCC3(C)C24)C1CC(=O)c1ccoc1` (stereo not drawn) [Hypopurin E], the IC50 in test [2] was more than 304 µM; in test [3] it was more than 304 µM; in test [1], 265 µM; against α-amylase, 225 µM. The inhibition at 100 µg/mL in test [3] came to 20.4 ± 0.56%; in test [1] it was 52.8 ± 1.07%; at α-amylase, 53.9 ± 0.52%. In addition, the “IC50 ± SEM (α-glucosidase)” value at α-glucosidase was found to be 76.33 ± 1.10. For the same compound, the “percentage inhibition of α-glucosidase” value in the test with α-glucosidase was 54.79 ± 0.85%. For the same compound, the “IC50 α-Glucosidase” value at α-glucosidase amounted to 76.33 ± 1.10 µg/mL (≈ 232 µM).
`C=C(C)[C@@H]1CC[C@]2(C)CC[C@]3(C)[C@H](CC[C@@H]4[C@@]5(C)CC[C@H](O)C(C)(C)[C@@H]5CC[C@]43C)[C@@H]12` [Lupeol]: the concentration for half-maximal inhibition (IC50) (in test [3]; in test [1]; on α-amylase) was more than 234 µM in each case. Besides, in the test on α-glucosidase, the “percentage inhibition of α-glucosidase” value is 60.91 ± 0.76%. At α-glucosidase, the “IC50 α-Glucosidase” value is 69.75 ± 0.42 µg/mL (≈ 163 µM).
`CC[C@H](/C=C/[C@@H](C)[C@H]1CC[C@H]2[C@@H]3CC=C4C[C@@H](O[C@@H]5O[C@H](CO)[C@@H](O)[C@H](O)[C@H]5O)CC[C@]4(C)[C@H]3CC[C@]12C)C(C)C` [Stigmasterol glucoside, Stigmasterol 3-O-β-D-glucopyranoside]: the IC50 (in test [3]; in test [1]; against α-amylase) was more than 174 µM in each case. Further, in test [3], the inhibition at 100 µg/mL is 25.2 ± 0.94%. Further, at α-glucosidase, the “IC50 α-Glucosidase” value is more than 100 µg/mL.
With `CC[C@H](CC[C@@H](C)[C@H]1CC[C@H]2[C@@H]3CC=C4C[C@@H](O[C@@H]5O[C@H](CO)[C@@H](O)[C@H](O)[C@H]5O)CC[C@]4(C)[C@H]3CC[C@]12C)C(C)C` [β-Sitosterol glucoside, 3β-O-D-glucopyranosyl-β-sitosterol], the half-inhibitory concentration (IC50) (in test [3]; in test [1]; at α-amylase) was more than 173 µM in each case. Moreover, the inhibition at 100 µg/mL in test [3] was found to be 30.45 ± 0.23%. The “IC50 α-Glucosidase” value on α-glucosidase is recorded as more than 100 µg/mL.

Values taken from PMC10304387, “In Vitro and In Silico Evaluation of Anticholinesterase and Antidiabetic Effects of Furanolabdanes and Other Constituents from Graptophyllum pictum (Linn.) Griffith” (Molecules, 2023).
